Experiments:
Format in all cases: cell-based, mouse
neural progenitors = experiment: Limiting dilution analysis of dissociated neurospheres; settings: for minimum density at which cells remain viable and expand: low density cultures
Method: (§1) For the BrdU incorporation assay, the cultures were incubated for 4 hrs in BrdU (Sigma, 10 μg/ml, 4 hrs), fixed and stained with rat monoclonal anti-BrdU (MAS250C, Harlan Sera-lab, Loughborough, UK; 1:200) and Cy3-conjugated goat anti-rat antibodies (Jackson ImmunoResearch, 1:300). Nuclei were visualized by Sytox (Molecular Probes, Inc.), and the mitotic index was calculated as the ratio of BrdU/Sytox positive nuclei. Limiting dilution analysis was performed as previously described (Keyoung et al., Nature Biotechnology 19:843-850 (2001); Uchida et al., Proc. Natl. Acad. Sci. 97:14720-14725 (2000), which are hereby incorporated by reference in their entirety).
To assess the requirement of P2Y signaling in self-renewal, neurospheres were dissociated to low density cultures and limiting dilution analysis performed, in the presence or absence of either suramin or RB. […] Thus, purinergic receptor activation was required not only for continued proliferation of neural progenitors, but also for survival at low plating densities.

neural stem cells = experiment: BrdU incorporation assay (mitotic index); settings: 4 hrs incubation
Method: as §1
Purinergic signaling has long-term effects on proliferation of numerous cell types, including rapidly replicating transformed cell lines (Burnstock, G., Arterioscler Thromb Vasc Biol 22:364-73 (2002); Michoud et al., Am J Respir Cell Mol Biol 27:732-8 (2002); Sauer et al., J Cell Sci 115:3265-73 (2002); Tu et al., Br J Pharmacol 129:1481-9 (2000), which are hereby incorporated by reference in their entirety). To better define the mitogenic effects of P2Y on neural progenitor cells, the mitogenic effects of ATP, its analogs, and its dephosphorylated metabolites were compared. To this end, BrdU incorporation by neural stem cells was quantified after 4 hrs incubation in each treatment.

neural spheres = experiment: Lineage potential by clonal expansion and immunostaining; settings: 5 day exposure, then 7 days without inhibitors
Method: Cultures were stained for nestin (monoclonal clone Rat 401, IgG1, or rabbit antiserum, Chemicon, Temecula, Calif.; 1:2000), neuronal class III β-tubulin (monoclonal clone TuJ1, IgG2a, Covance, Philadelphia, Pa.; 1:500), MAP-2 (2a+2b) (monoclonal clone AP-20, ascites fluid, Sigma, St. Louis, Mo.; 1:500), Neuronal protein HuC/HuD (monoclonal 16A11, Molecular Probes, Eugene, Oreg.; 15 μg/ml), O4 (monoclonal IgM supernatant; O4 hybridoma, or GFAP (mouse clone GA5, or rabbit antiserum, Sigma; 1:500,), purinergic receptors P2Y1, P2Y2, P2Y4 (polyclonal, Alomone Labs, Jerusalem, Israel, 1:200), p27 (polyclonal, Chemicon, 1:2000), cyclins D1 and E (polyclonal, H-295 and M-20, respectively, Santa Cruz Biotechnology, Santa Cruz, Calif.; 1:100), Secondary antibodies were FITC-conjugated goat anti-mouse IgM (μ-chain specific, Sigma; 1:500), Cy3-conjugated goat-anti-rabbit IgG (H+ L) (1:200), Cy5-conjugated Goat-anti-mouse IgG (H+L) (both from Jackson ImmunoResearch, West Grove, Pa.; 1:100). Nuclei were counter-stained with Sytox Green or propidium iodide (Molecular Probes). P27, cyclin D and cyclin E FACS analyses were performed on an EPICS ELITE ESP flow cytometer/cell sorter (Beckman Coulter), as described (Deptala et al., Int J Oncol 15:861-71 (1999), which is hereby incorporated by reference in its entirety). […]

neural progenitor cells = experiment: Calcium imaging (fluo-4/am) of Ca2+i responses in 1-2 day cultures
Method: Neuronal cultures were prepared from E16 mice and maintained as earlier described (Nedergaard, M., Science 263:1768-1771 (1994), which is hereby incorporated by reference in its entirety). Cytosine arabinoside (20 μM) was added at 48 hr to eliminate proliferating cells. Neural progenitor cells were isolated from E13 mice as previously described (Morshead et al., Neuron 13:1071-82 (1994); Reynolds et al., Science 255:1707-10 (1992), which are hereby incorporated by reference in their entirety). The forebrains were collected in a Ca/Mg-free Hank's buffered saline solution (HBSS) and dissociated in 0.25% trypsin. The cells were resuspended at 4×10^6 cells/ml in DMEM/F12/N2 containing 10 ng/ml bFGF and 10 ng/ml EGF (Sigma, St. Louis, Mo.). The cells were plated at 4 ml/dish into 100 mm suspension culture plates and incubated at 37° C. in 5% CO2. The cells were passaged 2 to 3 times before use.
To test the idea that purinergic signaling is restricted to undifferentiated neural precursor cells, Ca^2+ responses to ATP were first examined as a function of time after plating either neural stem cells or differentiated neurons. Cultured mouse cortical neurons in near-pure neuronal cultures were loaded with fluo-4/am and exposed to either ATP (100 μM) or K^+ (60 mM). […] The responses to ATP fell by day 3 and were absent 9 days after plating. […] By 30 hours after plating, MAP2-defined neurons expressed substantially less P2Y receptor-immunoreactivity than did neighboring, MAP2^− cells (FIG. 1C). By 5 days, P2Y-immunoreactivity was restricted to GFAP^+ astrocytes.
ATP-induced Ca^2+i increments were inhibited by both suramin (100 μM) and reactive blue (RB; 30 μM), two mechanistically-unrelated inhibitors of purinergic signaling (FIG. 1D).

neurospheres = experiment: Flow cytometry of S-phase fraction and P27 expression; settings: for P27 expression: suramin 300 μM, RB 40 μM (FIG. 3D); for fraction of cells in S-phase: treated cultures, untreated control 16.4%±1.8%, p<0.001
Method: Cultures were stained for nestin (monoclonal clone Rat 401, IgG1, or rabbit antiserum, Chemicon, Temecula, Calif.; 1:2000), neuronal class III β-tubulin (monoclonal clone TuJ1, IgG2a, Covance, Philadelphia, Pa.; 1:500), MAP-2 (2a+2b) (monoclonal clone AP-20, ascites fluid, Sigma, St. Louis, Mo.; 1:500), Neuronal protein HuC/HuD (monoclonal 16A11, Molecular Probes, Eugene, Oreg.; 15 μg/ml), O4 (monoclonal IgM supernatant; O4 hybridoma, or GFAP (mouse clone GA5, or rabbit antiserum, Sigma; 1:500,), purinergic receptors P2Y1, P2Y2, P2Y4 (polyclonal, Alomone Labs, Jerusalem, Israel, 1:200), p27 (polyclonal, Chemicon, 1:2000), cyclins D1 and E (polyclonal, H-295 and M-20, respectively, Santa Cruz Biotechnology, Santa Cruz, Calif.; 1:100), Secondary antibodies were FITC-conjugated goat anti-mouse IgM (μ-chain specific, Sigma; 1:500), Cy3-conjugated goat-anti-rabbit IgG (H+ L) (1:200), Cy5-conjugated Goat-anti-mouse IgG (H+L) (both from Jackson ImmunoResearch, West Grove, Pa.; 1:100). Nuclei were counter-stained with Sytox Green or propidium iodide (Molecular Probes). P27, cyclin D and cyclin E FACS analyses were performed on an EPICS ELITE ESP flow cytometer/cell sorter (Beckman Coulter), as described (Deptala et al., Int J Oncol 15:861-71 (1999), which is hereby incorporated by reference in its entirety). The analysis of ectonucleotidase activity was adapted from Braun et al., “Expression of the Ecto-ATPase NTPDase2 in the Germinal Zones of the Developing and Adult Rat Brain,” Eur. J. Neurosci. 17:1355-64 (2003), which is hereby incorporated by reference in its entirety. Cryostat sections from paraformaldehyde-perfused animals were utilized. All experiments used either inosine diphosphate (IDP), adenosine diphosphate (ADP), or adenosine triphosphate (ATP) as substrate (1 mM), whereas substrate was omitted from controls.
The inhibition of proliferation afforded by suramin and RB was reversible. The percentage of cells in S-phase recovered by 50% at 8 h and by 80% at 24 hr after wash-out of the drugs.

`Cc1ccc(C(=O)Nc2ccc(S(=O)(=O)O)c3cc(S(=O)(=O)O)cc(S(=O)(=O)O)c23)cc1NC(=O)c1cccc(NC(=O)Nc2cccc(C(=O)Nc3cc(C(=O)Nc4ccc(S(=O)(=O)O)c5cc(S(=O)(=O)O)cc(S(=O)(=O)O)c45)ccc3C)c2)c1` [suramin] was tested, and the “minimum density at which cells remain viable and expand” value (neural progenitors) was “increased the minimum density”, the “survival at low plating densities” value (neural progenitors) was “died by 5 days in vitro” and the “proliferation (BrdU incorporation)” value (neural stem cells) was “inhibited proliferation in a dose-dependent manner”. For the same molecule, the “lineage potential of exposed progenitor cells” value (neural spheres) was “neither suramin nor RB restricted the lineage potential”, the “inhibition of ATP-induced Ca2+i increments” value (neural progenitor cells; suramin 100 μM) was “inhibited” and the P27 expression (neurospheres) was “increase in the tumor suppressor P27”. For the same molecule, the “fraction of cells in S-phase” value (neurospheres) was 8.4±2.3%.

With `Nc1c(S(=O)(=O)O)cc(Nc2ccc(Nc3nc(Cl)nc(Nc4cccc(S(=O)(=O)O)c4)n3)c(S(=O)(=O)O)c2)c2c1C(=O)c1ccccc1C2=O` [RB, reactive blue 2] the “minimum density at which cells remain viable and expand” value (neural progenitors) was “increased the minimum density”, the “survival at low plating densities” value (neural progenitors) was “died by 5 days in vitro” and the “proliferation (BrdU incorporation)” value (neural stem cells) was “inhibited proliferation in a dose-dependent manner”. The “lineage potential of exposed progenitor cells” value (neural spheres) was “neither suramin nor RB restricted the lineage potential”, the “inhibition of ATP-induced Ca2+i increments” value (neural progenitor cells; reactive blue 30 μM) was “inhibited” and the P27 expression (neurospheres) was “rose more strongly”. For the same molecule, the “fraction of cells in S-phase” value (neurospheres) was 5.7±0.3%.

Source: patent publication US7829332B2, “Purines are self-renewal signals for neural stem cells, and purine receptor antagonists promote neuronal and glial differentiation therefrom” (Cornell Research Foundation, Inc., priority 2004, dated 2010)
